Assay results: article PMC4317577, “Synthetic Covalently Linked Dimeric Form of H2 Relaxin Retains Native RXFP1 Activity and Has Improved In Vitro Serum Stability” (BioMed Research International, 2015)

Columns and labels:
human RXFP2 = biological target: T1, human RXFP2 (Homo sapiens, UniProt Q8WXD0); assay: cAMP reporter gene (pCRE β-galactosidase) assay in RXFP2 expressing HEK-293T cells; type: cell-based; details: HEK-293T cells expressing RXFP2, pCRE β-galactosidase reporter, 6 h at 37°C; at least three independent experiments in triplicate
T1 construct: expressed in transfected cells; host or cells: HEK-293T
T1 sequence (Q8WXD0 whole entry): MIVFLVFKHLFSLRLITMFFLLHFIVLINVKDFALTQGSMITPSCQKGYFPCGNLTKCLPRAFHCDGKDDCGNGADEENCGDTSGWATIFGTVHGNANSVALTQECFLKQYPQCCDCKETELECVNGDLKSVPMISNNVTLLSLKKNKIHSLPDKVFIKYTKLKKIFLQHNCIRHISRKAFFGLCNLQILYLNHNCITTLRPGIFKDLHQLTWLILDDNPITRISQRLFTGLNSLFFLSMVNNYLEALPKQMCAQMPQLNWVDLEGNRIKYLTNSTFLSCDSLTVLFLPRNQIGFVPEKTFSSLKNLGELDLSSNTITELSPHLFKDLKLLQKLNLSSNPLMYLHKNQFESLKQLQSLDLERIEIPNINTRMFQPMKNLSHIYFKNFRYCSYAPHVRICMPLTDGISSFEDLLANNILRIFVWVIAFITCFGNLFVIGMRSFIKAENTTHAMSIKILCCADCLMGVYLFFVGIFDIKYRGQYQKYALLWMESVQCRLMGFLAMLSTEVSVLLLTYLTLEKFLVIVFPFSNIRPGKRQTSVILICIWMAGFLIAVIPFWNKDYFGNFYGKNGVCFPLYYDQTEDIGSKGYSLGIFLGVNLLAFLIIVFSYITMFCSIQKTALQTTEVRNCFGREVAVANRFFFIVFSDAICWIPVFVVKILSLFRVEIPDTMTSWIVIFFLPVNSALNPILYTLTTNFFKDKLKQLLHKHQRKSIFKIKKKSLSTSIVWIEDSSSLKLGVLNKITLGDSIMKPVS
Method: The influence of cAMP signaling by synthetic analogues in HEK-293T cells expressing either human RXFP1 or RXFP2 receptors was assessed using cAMP reporter gene assay as described previously. Briefly, HEK-293T cotransfected with response element pCRE β-galactosidase reporter plasmid were plated out in Corning Cell BIND 96-well plate at 50 000 cells per well per 200 μL. 24 h later, cotransfected cells were treated with increasing concentrations of H2 relaxin analogues in parallel with native H2 relaxin or human INSL3. After 6 h incubation at 37°C, cell media were aspirated and cells were frozen at −80°C overnight. A β-galactosidase colorimetric assay measuring absorbance at 570 nm on Benchmark Plus microplate spectrophotometer (Bio-Rad, Gladesville, Australia) was then used to measure relative cAMP responses. Each concentration point was measured in triplicate and each experiment performed independently at least three times. Ligand-induced stimulation of cAMP was expressed as a percentage of the maximum H2 relaxin response for RXFP1 cells or human INSL3 for RXFP2 cells. GraphPad Prism 5 was used to analyze the cAMP activity assay which was expressed as the mean ± S.E.M. Statistical analysis was conducted using one-way ANOVA with Newman-Keuls post hoc analysis.

In vitro serum stability = type: in vitro ADME; details: 100% human serum; 100% male human serum, not heat inactivated, 37°C; 10.0 μL of 1.0 mg/mL peptide in 590 μL serum; samples 0-6 h, acetonitrile/0.1% TFA quench, RP-HPLC (C4) peak area; triplicate
Method: The stability of the synthetic analogue was measured against native H2 relaxin in human serum. The purchased serum was not heat inactivated in order to retain as much of its proteolytic enzymic activity as possible. The peptides tested were normalized to a final concentration of 1.0 mg/mL with deionized water, and 10.0 μL of peptides was added to 590 μL 100% human serum. After addition of peptide into the serum, 50 μL of samples was removed and quenched with 250 μL of ice-cold acetonitrile/0.1% TFA. The solution was then spun down with a benchtop centrifuge at 13,500 rpm (Eppendorf Centrifuge 5804R, Melbourne, Australia) for 15 mins at 4°C to pellet the larger, precipitated serum proteins. The remaining peptide/serum solution was placed immediately into 37°C incubator. Degradation of peptides was monitored with manual RP-HPLC injections of supernatant using a Phenomenex Aeris Widepore 3.6 μm C4 analytical column (pore size, 100 Å; particle size 4.6 × 250 mm), in a stabilized gradient mode with eluent A: 0.1% aq TFA and eluant B: 0.1% TFA in acetonitrile. Samples were taken at time points 0.5, 1.0, 1.5, 2.0, 2.5, 3, 4, 5, and 6 h. […] Nonspecific peptide degradation was measured by peptide degradation in serum at 0 h. […] GraphPad Prism 5 was used to analyze the peptide degradation in serum which was expressed as the mean ratio ± S.E.M. and Microsoft Excel was used to graph all data. […]

[1] = cited from earlier work
Method: Nearly 9 decades since its discovery, the pleotropic peptide H2 relaxin recently completed a successful Phase III clinical trial for the treatment of acute heart failure. Despite this important success, the short in vivo half-life of the peptide (10 mins) necessitates its continuous intravenous infusion for optimum activity. As the in vivo half-life of a peptide or protein is affected by both its degradation by enzymes and renal clearance, it can be improved by, for example, conjugation with large MW compounds such as PEG or by polymerization/aggregation ...

Compound | cAMP activation at RXFP2 compared with H2 relaxin (human RXFP2) | half-life at 16.7 µg/mL (In vitro serum stability) [h] | plasma half-life in rabbits [1] | activity in vivo relative to monomer [1] [fold]
CC[C@H](C)[C@@H]1NC(=O)[C@H](C)NC(=O)[C@H](CC(C)C)NC(=O)[C@H](CCC(N)=O)NC(=O)[C@H](C)NC(=O)[C@H](CCCNC(=N)N)NC(=O)[C@H](C(C)C)NC(=O)[C@H](CC(C)C)NC(=O)[C@H](CCC(=O)O)NC(=O)[C@H](CCCNC(=N)N)NC(=O)CNC(=O)[C@@H](NC(=O)[C@H](CC(C)C)NC(=O)[C@H](CCCCN)NC(=O)[C@@H](NC(=O)[C@@H](NC(=O)[C@H](CCC(=O)O)NC(=O)[C@H](CCC(=O)O)NC(=O)[C@H](CCSC)NC(=O)[C@H](Cc2c[nH]c3ccccc23)NC(=O)[C@H](CO)NC(=O)[C@H](CC(=O)O)NC(=O)[C@@H](N)Cc2cn(CCOCCOCCOCCOCCOCCOCCOCCn3cc(C[C@H](N)C(=O)N[C@@H](CC(=O)O)C(=O)N[C@@H](CO)C(=O)N[C@@H](Cc4c[nH]c5ccccc45)C(=O)N[C@@H](CCSC)C(=O)N[C@@H](CCC(=O)O)C(=O)N[C@@H](CCC(=O)O)C(=O)N[C@H](C(=O)N[C@H](C(=O)N[C@@H](CCCCN)C(=O)N[C@@H](CC(C)C)C(=O)N[C@H]4CSSC[C@@H]5NC(=O)[C@@H](NC(=O)[C@H](CCCCN)NC(=O)[C@H](CC(N)=O)NC(=O)[C@H](C)NC(=O)[C@H](CC(C)C)NC(=O)[C@H](C)NC(=O)[C@H](CO)NC(=O)[C@H](Cc6ccc(O)cc6)NC(=O)[C@H](CC(C)C)NC(=O)[C@@H]6CCC(=O)N6)CSSC[C@H](NC(=O)CNC(=O)[C@H](C(C)C)NC(=O)[C@H](Cc6c[nH]cn6)NC5=O)C(=O)N[C@@H]([C@@H](C)O)C(=O)N[C@@H](CCCCN)C(=O)N[C@@H](CCCNC(=N)N)C(=O)N[C@@H](CO)C(=O)N[C@@H](CC(C)C)C(=O)N[C@@H](C)C(=O)N[C@@H](CCCNC(=N)N)C(=O)N[C@@H](Cc5ccccc5)C(=O)N[C@H](C(N)=O)CSSC[C@@H](C(=O)NCC(=O)N[C@@H](CCSC)C(=O)N[C@@H](CO)C(=O)N[C@H](C(=O)N[C@@H](Cc5c[nH]c6ccccc56)C(=O)N[C@@H](CO)C(N)=O)[C@@H](C)O)NC(=O)[C@H]([C@@H](C)CC)NC(=O)[C@H](C)NC(=O)[C@H](CC(C)C)NC(=O)[C@H](CCC(N)=O)NC(=O)[C@H](C)NC(=O)[C@H](CCCNC(=N)N)NC(=O)[C@H](C(C)C)NC(=O)[C@H](CC(C)C)NC(=O)[C@H](CCC(=O)O)NC(=O)[C@H](CCCNC(=N)N)NC(=O)CNC4=O)[C@@H](C)CC)C(C)C)nn3)nn2)C(C)C)[C@@H](C)CC)CSSC[C@@H]2NC(=O)[C@@H](NC(=O)[C@H](CCCCN)NC(=O)[C@H](CC(N)=O)NC(=O)[C@H](C)NC(=O)[C@H](CC(C)C)NC(=O)[C@H](C)NC(=O)[C@H](CO)NC(=O)[C@H](Cc3ccc(O)cc3)NC(=O)[C@H](CC(C)C)NC(=O)[C@@H]3CCC(=O)N3)CSSC[C@H](NC(=O)CNC(=O)[C@H](C(C)C)NC(=O)[C@H](Cc3c[nH]cn3)NC2=O)C(=O)N[C@@H]([C@@H](C)O)C(=O)N[C@@H](CCCCN)C(=O)N[C@@H](CCCNC(=N)N)C(=O)N[C@@H](CO)C(=O)N[C@@H](CC(C)C)C(=O)N[C@@H](C)C(=O)N[C@@H](CCCNC(=N)N)C(=O)N[C@@H](Cc2ccccc2)C(=O)N[C@H](C(N)=O)CSSC[C@@H](C(=O)NCC(=O)N[C@@H](CCSC)C(=O)N[C@@H](CO)C(=O)N[C@H](C(=O)N[C@@H](Cc2c[nH]c3ccccc23)C(=O)N[C@@H](CO)C(N)=O)[C@@H](C)O)NC1=O [H2 (PEG)7 H2 dimer] | significantly weaker activation propensity | 2.52 | – | –
erythropoietin monomer: erythropoietin monomer | – | – | 4 h | –
dimeric erythropoietin: dimeric erythropoietin formed by chemical crosslinking of the monomer | – | – | more than 24 h | 26
